This passage reports Ki results from BindingDB's records for patent US10457686 (Hoffmann-La Roche Inc., 2019).

For this test, the target named is Cannabinoid receptor 1 (Homo sapiens, UniProt P21554).
Chain of Cannabinoid receptor 1 (P21554 whole entry): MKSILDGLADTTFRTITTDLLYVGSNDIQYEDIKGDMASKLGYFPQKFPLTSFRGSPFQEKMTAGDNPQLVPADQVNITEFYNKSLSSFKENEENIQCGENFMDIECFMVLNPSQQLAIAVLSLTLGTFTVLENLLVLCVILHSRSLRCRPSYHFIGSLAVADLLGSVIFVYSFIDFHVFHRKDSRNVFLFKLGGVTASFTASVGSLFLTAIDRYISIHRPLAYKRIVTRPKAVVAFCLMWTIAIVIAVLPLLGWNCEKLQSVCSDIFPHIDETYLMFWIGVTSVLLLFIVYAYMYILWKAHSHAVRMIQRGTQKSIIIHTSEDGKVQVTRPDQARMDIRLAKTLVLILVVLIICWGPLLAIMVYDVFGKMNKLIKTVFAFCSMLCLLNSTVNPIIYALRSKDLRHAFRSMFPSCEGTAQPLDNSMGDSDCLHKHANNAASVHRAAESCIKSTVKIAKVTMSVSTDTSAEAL

Compound `CC(C)(C)c1nc(N2CCC(F)(F)C2)c2nn(Cc3ccc(C4(C(F)(F)F)N=N4)cc3Cl)nc2n1` [US10457686, Example 1] displayed a Ki greater than 10 µM.

The term Ki denotes the dissociation constant of the complex between target and ligand, obtained from inhibition or displacement.
